Measured values as given in patent US20050187188A1, “Methods for the treatment of a traumatic central nervous system injury” (Emory University, priority 2000, published 2005).

Tests used:
IL-1β = IL-1β mRNA expression in brain tissue after contusion, real-time quantitative PCR; format: in vivo, rat
Source text: Neurosteroid injections were given at 1 hr and 6 hrs after the contusions, and continued once a day for up to 5 consecutive days post-injury.
Adult male SD rates received either bilateral prefrontal cortical contusions or sham surgeries. The neurosteroid injections were given at 1 hr and 6 hr after the contusions and continued once a day for up to 5 consecutive days post-injury. At 3 hr, 8 hr, 12 hr and 6 days post-injury, the rats were killed and their brains were processed for mRNA extraction. Expression of mRNA for IL-1β and TNFα were assessed using real-time quantitative PCR.

[1] = tested on: rats with bilateral contusions of the medial prefrontal cortex; experiment: Bilateral sensory neglect (BSN) task, Example 6; format: in vivo, rat; details: 3 days (LP3); 6 and 20 days post injury
Protocol: Male Sprague-Dawley rats (300 g) were housed individually in wire cages and kept on a reverse light-dark cycle (0800-2000 h). Animals were assigned to one of four groups: (1) lesion (n=7); (2) lesion +3 days progesterone (LP3; n=7); (3) lesion +5 days progesterone (LP5; n=7); and (4) Sham (n=8). All procedures involving animals conformed to guidelines set forth in the Guide for the Care and Use of Laboratory Animals (U.S. Department of Health and Human Services, Pub no. 85-23, 1985) and were approved by the Emory University Institutional Animal Care and Use Committee.
Bilateral contusions of the medial prefrontal cortex were created by a pneumatic impactor device as previously described. […]
Experienced individuals who were blind to treatment conditions of the study conducted all histological and behavioral analyses. All data were tested for normality and homoschedasticity before being analyzed by parametric analysis of variance (ANOVA). MWM results were analyzed using separate mixed-factorial (4 groups×5 days) analysis of variance (ANOVA) on each of the two 5-day testing periods (acquisition and retention respectively). Results of the BSN task were analyzed using the mixed-factorial ANOVA (4 groups×2 post-injury trials). […]
Measures of attentional abilities, using a bilateral sensory neglect (BSN) task, were recorded one day prior to surgery (baseline) and on postsurgical days 6 and 20. […]

traumatic brain injury [2] = experiment: Morris water maze dose response, progesterone in cyclodextrin vehicle, Example 7; format: in vivo, rat
Protocol: The Morris Water Maize (MWM) consisted of a circular tank with a diameter of 133 cm filled with opaque water (20±1° C.; non-toxic Artista™ nontoxic white tempura paint) to a depth of 64 cm (23 cm from top of tank). A platform (11 cm×11 cm) was submerged to a depth of 2 cm and placed approximately 28 cm from the wall of the pool in the center of the northeast quadrant. The position of the platform will remain constant throughout the experiment. MWM testing began seven days after surgery. Each animal was tested for a total of 10 days (2 trials per day) in two 5-day blocks. At the start of each trial, the experimenter placed a rat into the pool at one of four starting positions, and at the same time, activate the computer-interfaced camera tracking system. Each rat was allowed to swim in the pool until it reached the platform or until 90 seconds has passed. […] Once a rat found the platform, it was left there for 20 seconds and then removed from the pool for an intertrial interval of 20 seconds. Each rat was then placed in the pool at another start position and the procedure described earlier was repeated. The performance of each rat was measured in terms of latency to platform, length of path to platform, and swim strategy, i.e., percent of total time spent in the outer versus inner annuli.
(§1) Surgery to induce a traumatic brain injury was performed as outlined in Example 1. Behavior testing using the Morris Water Maize was performed as outlined in Example 1 and the methods for the tactical adhesive removal were performed as outlined in Example 4.

traumatic brain injury [3] = experiment: Sticker removal task (tactile adhesive removal) dose response, Example 7; format: in vivo, rat
Source text: On the 7th and 27th days post-injury, the rats will be assessed on their responsivity to focal somatosensory stimuli by requiring them to remove sticky paper from their forelimbs. Pairs of circular adhesive papers will be attached to the distal-radial areas of each forelimb and the animal will be returned to its home cage while the investigator holds the forepaws apart and keeps them away from the rat's mouth. The rats' latencies to remove the stimuli with their mouth will be recorded. The maximum length of a “test” trial will be 2 minutes, with each rat receiving four trials with 2 minute intertrial intervals.
as §1

ischemic injury = details: following ischemic injury in rats; cited from earlier work
[4] = tested on: blood-brain barrier (BBB); details: in vitro; macromolecules vs ions such as sodium; cited from earlier work
cell death = details: by attenuating release of inflammatory cytokines; cited from earlier work

For `CC(=O)[C@H]1CC[C@H]2[C@@H]3CCC4=CC(=O)CC[C@]4(C)[C@H]3CC[C@]12C` [progesterone], the “IL-1β mRNA expression” value (IL-1β; 3 hours and 6 days post-injury) was “reduced the expression of both IL-1β and TNFα”, the “IL-1β mRNA expression” value (IL-1β; 8 hrs post-injury) was “but not progesterone, enhanced” and the BSN task performance [1] was “impaired on this task compared to control animals”. The “Morris water maze performance” value (traumatic brain injury [2]; high dose 32 mg/kg in a cyclodextrin-containing vehicle) was “did not show any beneficial effect”, the “Morris water maze performance” value (traumatic brain injury [2]; low dose 8 mg/kg in a cyclodextrin-containing vehicle) was “consistent improvement in Morris water maze performance” and the “Morris water maze performance” value (traumatic brain injury [2]; moderate dose 16 mg/kg in a cyclodextrin-containing vehicle) was “consistent improvement in Morris water maze performance”. For the same molecule, the “sticker removal task (sensory neglect)” value (traumatic brain injury [3]; high dose 32 mg/kg in cyclodextrin-containing carrier) was “degraded to lesion control levels”, the “sticker removal task (sensory neglect)” value (traumatic brain injury [3]; low dose 8 mg/kg in cyclodextrin-containing carrier) was “initially produce behavioral recovery” and the “sticker removal task (sensory neglect)” value (traumatic brain injury [3]; moderate dose 16 mg/kg in cyclodextrin-containing carrier) was “improved to sham levels by day 21 post-injury”. For the same molecule, the “cell damage and neurological deficit” value (ischemic injury) was “reduce cell damage and neurological deficit”, the “permeability of the BBB” value [4] was “reduce the permeability of the BBB to macromolecules, but not ions” and the “cell death in vitro” value (cell death) was “prevent cell death in vitro”.
